Reference: US20150216182A1, “COMPOSITIONS AND METHODS OF THE ATTRACTION AND REPULSION OF INSECTS” (Olfactor Laboratories, Inc., priority 2012, published 2015)

How the values were obtained:
[1] = tested on: cpA neurons; assay: extracellular single-sensillum electrophysiology: activation of cpA neuronal activity; settings: for Class: Table 6, single compounds, increase over baseline cpA neuronal activity
[2] = tested on: female mosquitoes; settings: single compound, female mosquitoes, two hours; for % mortality with 0.2 mg/ml: 0.2 mg/ml on filter paper; for % mortality with 2 mg/ml: 2 mg/ml on filter paper
[3] = tested on: bed bugs (Cimex lectularius); assay: bed bug repellency assay; type: in vivo; settings: for % Rep (bed bug repellency): compound or combination on filter paper harborage, ten bed bugs
Method: Compounds and combinations of compounds of the present invention were assayed for their ability to repel bed bugs (Cimex lectularius) using a bed bug repellency assay. This assay takes advantage of the bed bug's natural tendency to seek harborage. Two petri dishes were obtained and the inner areas of each were sanded down (leaving the perimeter smooth.) Talc was applied on the perimeter and on the inside walls of the petri dishes with a small paint brush to prevent bed bugs from escaping. A cut off top portion of a solo bathroom cup was placed upside down in the center of one petri dish. A large plastic secondary container was gathered and a paper towel was laid down inside the bottom. The petri dish was then placed inside and ten bed bugs were placed inside the cut off portion of the solo cup. Next, two pieces of filter paper were cut down the middle to yield 4 equally sized halves. 3 pieces were placed inside a glass dish ([…]) and the remaining piece was placed in a separate dish. All 4 pieces were folded down the middle to create a “tent” or “harborage” when laid such that the folded crease faced up. 100 microliters of isopropyl alcohol was pipetted into 3 pieces of filter paper (all housed in the first glass dish.) In a separate 4 ml vial, 90 microliters of isopropyl alcohol was combined and vortexed with 10 microliters of the compound or compound combination being tested. 100 microliters of this solution [comprising a total of 100 mg of compound(s)] was pipetted onto the filter paper in the separate dish. All filter papers were then allowed to dry. Once dry, experiments were conducted first with two filter paper halves comprising only the isopropyl alcohol (control experiment) and then with the remaining filter paper halves [one with only isopropyl alcohol and one comprising the test compound(s).] Filter paper halves were placed on opposing sides of experimental petri dishes and bed bugs were allowed to move freely within the dishes for 5 minutes. Movement of bed bugs beneath each filter paper tent was recorded. […] In the Table, “Rep” refers to repellency and “Cmpd” refers to compound.

[4] = tested on: larvae; assay: larvicidal activity assay; type: in vivo; settings: 24 hour exposure, dead larvae / total larvae; for % Lethality at 100 ppm / pest or weed control at 100 ppm: 100 ppm compound; for % Lethality with 0.25% compound conc. / pest or weed control at 0.25 %: 0.25% compound; for pest or weed control at 0.25 %: read-out: % Lethality with 0.25% compound conc.; for pest or weed control at 100 ppm: read-out: % Lethality at 100 ppm
Method: A 6-well plate (Corning Life Sciences, Tewksbury, Mass.) is used to test a compound's larvicidal activity. […] After a 24 hour exposure, the number of dead larvae are counted and recorded.
The results are presented in Table 17 as % lethality (the number of dead larvae divided by the total number of larvae).

[5] = tested on: cpA neurons; assay: extracellular single-sensillum electrophysiology: inhibition of CO2-responsive (cpA) neuronal activity; settings: for Class: Table 10, single compounds, percent reduction in cpA activity compared to baseline; for Class (inhibitor class of the individual component): Inh = inhibitor
[6] = tested on: female mosquitoes; assay: whole plant or invertebrate; settings: 2 h; for mortality at 200 µg/mL: read-out: % mortality with 0.2 mg/ml; for mortality at 2000 µg/mL: read-out: % mortality with 2 mg/ml
[7] = Table 13, single component alone
[8] = Table 16, single component alone

2-ethyl-5(6)-methylpyrazine [OLI0032]
Class [1]: Mild Activator (mild activators yield an increase in neuronal activity that is between 20 and 40 spk/sec over baseline neuronal activity)
% mortality with 0.2 mg/ml [2]: 0%
% mortality with 2 mg/ml [2]: 0%

2-methoxy-3(5or6)isopropylpyrazine [OLI0072]
% Rep (bed bug repellency) [3]: 100%
% Lethality with 0.25% compound conc. [4]: 100% lethal
% Lethality at 100 ppm [4]: 0% lethal
Class [5]: Moderate Inhibitor (moderate inhibitors (reducing activity by 40-60%))
Class (inhibitor class of the individual component) [5, 7]: Mod
Class (inhibitor class of the individual component) [5, 8]: Mod
inhibitor class of single compound [5]: moderate inhibitor (40-60% reduction in neuronal activity as compared to baseline activity of the neuron)

C/C=C(\C)C=O [OLI0013, trans-2-methyl-2-butenal]
Class [1]: Strong Activator (strong activators yield an increase in activity that is >60 spk/sec over baseline neuronal activity)
% Lethality with 0.25% compound conc. [4]: 72% lethal
% Lethality at 100 ppm [4]: 0% lethal
% mortality with 0.2 mg/ml [2]: 0%
% mortality with 2 mg/ml [2]: 0%

CCc1ncc(C)nc1CC [OLI0067, 2,3-diethyl-5-methylpyrazine]
% Rep (bed bug repellency) [3]: 100%
pest or weed control at 0.25 % [4]: 100%
pest or weed control at 100 ppm [4]: 0%
mortality at 200 µg/mL [6]: 0%
mortality at 2000 µg/mL [6]: 0%
Class [5]: Strong Inhibitor (strong inhibitors (reducing activity >60%))

CCc1nccnc1CC [OLI0068, 2,3-diethylpyrazine]
% Rep (bed bug repellency) [3]: 24%
pest or weed control at 0.25 % [4]: 100%
pest or weed control at 100 ppm [4]: 0%
mortality at 200 µg/mL [6]: 0%
mortality at 2000 µg/mL [6]: 0%
Class [5]: Strong Inhibitor (strong inhibitors (reducing activity >60%))
Class (inhibitor class of the individual component) [5, 8]: Strng

CCc1nccnc1C [OLI0069, 2-ethyl-3-methylpyrazine]
% Rep (bed bug repellency) [3]: 10%
pest or weed control at 0.25 % [4]: 100%
pest or weed control at 100 ppm [4]: 0%
mortality at 200 µg/mL [6]: 0%
mortality at 2000 µg/mL [6]: 0%
Class [5]: Strong Inhibitor (strong inhibitors (reducing activity >60%))

CCc1nccnc1OC [OLI0071, 2-ethyl-3-methoxypyrazine]
% Rep (bed bug repellency) [3]: 29%
pest or weed control at 0.25 % [4]: 100%
pest or weed control at 100 ppm [4]: 0%
mortality at 200 µg/mL [6]: 0%
mortality at 2000 µg/mL [6]: 0%
Class [5]: Moderate Inhibitor (moderate inhibitors (reducing activity by 40-60%))
Class (inhibitor class of the individual component) [5, 7]: Mod
Class (inhibitor class of the individual component) [5, 8]: Mod
inhibitor class of single compound [5]: moderate inhibitor (40-60% reduction in neuronal activity as compared to baseline activity of the neuron)

CCCCCCC(=O)OC [OLI0091, methyl heptanoate]
Comp A Class ([1]; Table 9, component A tested individually): Mild Inh (mild inhibitors (reducing activity by 20-40%))
% Rep (bed bug repellency) [3]: 20%
pest or weed control at 0.25 % [4]: 72%
pest or weed control at 100 ppm [4]: 0%
mortality at 200 µg/mL [6]: 0%
mortality at 2000 µg/mL [6]: 0%
Class [5]: Mild Inhibitor (mild inhibitors (reducing activity by 20-40%))

CCCCCC(C)=O [OLI0092, methylamylketone]
Comp B Class ([1]; Table 9, component B tested individually): Mild Inh (mild inhibitors (reducing activity by 20-40%))
% Rep (bed bug repellency) [3]: 8%
pest or weed control at 0.25 % [4]: 73%
pest or weed control at 100 ppm [4]: 32%
mortality at 200 µg/mL [6]: 0%
mortality at 2000 µg/mL [6]: 0%
Class [5]: Mild Inhibitor (mild inhibitors (reducing activity by 20-40%))

C=CCc1ccc(O)c(OC)c1 [OLI0102, Eugenol]
ability to repel bed bugs ([3]; 100 microliters solution on filter paper tent, 5 minutes): surprisingly strong ability to repel bed bugs
% Rep (bed bug repellency) [3]: 100%
pest or weed control at 0.25 % [4]: 100%
pest or weed control at 100 ppm [4]: 25%
mortality at 200 µg/mL [6]: 0%
mortality at 2000 µg/mL [6]: 100%
Class (inhibitor class of the individual component) [5, 7]: Mild
Class (inhibitor class of the individual component) [5, 8]: Mild
